Experimental findings from ChEMBL document CHEMBL5058564, “EUbOPEN Chemogenomics Library 2 (Incucyte)” (2022) are described below.

Values joined by “and” are separate entries in the source; they are usually repeats but may differ in a detail not shown here. Identical values can stand only once.

Common to all, as to format: toxicity, cell-based
The test system of one data set is HEK-293T. The data set is described as follows: Incucyte cell viability with HEK293T. The note with it: human, 10 µM, compound concentration 10 uM.
A further data set relates to Fibroblast. The data set can be described thus: Incucyte cell viability with human fibroblast. The note with it: 10 µM, compound concentration 10 uM.
A further data set deals with U2OS. The data set can be described thus: Incucyte cell viability with U2OS. The conditions noted are these: human, 10 µM, compound concentration 10 uM.
Setting [1] is: 6 h, replicate number 1, timepoint 6 hours.
Where [2] appears, read: 12 h, replicate number 1, timepoint 12 hours.
[3] abbreviates: 12 h, replicate number 2, timepoint 12 hours.
The mark [4] stands for this setting: 18 h, replicate number 1, timepoint 18 hours.
Where [5] appears, read: 18 h, replicate number 2, timepoint 18 hours.
[6] abbreviates: 24 h, replicate number 1, timepoint 24 hours.
Where [7] appears, read: 24 h, replicate number 2, timepoint 24 hours.
Where [8] appears, read: 0 h, replicate number 1, timepoint 0 hours.
The mark [9] stands for this setting: 0 h, replicate number 2, timepoint 0 hours.
The mark [10] stands for this setting: 6 h, replicate number 2, timepoint 6 hours.
Further: unitless GR value; below 1 slowed growth and below 0 cell loss.

For `CNCCN1CCC(c2cc(CN(C)C(=O)c3cccc(Oc4ccccc4)c3)ccn2)CC1`, the “Growth Rate” value in the data set with HEK-293T (setting [1]) came to 0.74; with HEK-293T (setting [2]), 0.76; in the data set with HEK-293T (setting [3]) it was 0.86; with HEK-293T (setting [4]) it was 0.98; with HEK-293T (setting [5]), 0.92; in the data set with HEK-293T (setting [6]), 1. The “Growth Rate” value in the data set with HEK-293T (setting [7]) amounted to 0.81; with Fibroblast (setting [8]) it was 0.7; with Fibroblast (setting [9]), 0.9; with Fibroblast (setting [1]) it was 0.73; in the data set on Fibroblast (setting [10]), 0.98; in the data set on Fibroblast (setting [2]) it was 0.83. Further, the “Growth Rate” value in the data set on Fibroblast (setting [4]) is 0.55; in the data set on Fibroblast (setting [6]), 0.43; in the data set with U2OS (setting [8]), -0.2; in the data set on U2OS (setting [9]), 0.56; in the data set with U2OS (setting [10]), 0.98; in the data set with U2OS (setting [2]) it was 0.88. For the same molecule, the “Growth Rate” value in the data set with U2OS (setting [3]) worked out at 0.99; with U2OS (setting [4]), 0.96; in the data set on U2OS (setting [6]), 0.37.
Consider `CC(C)Oc1ccc(-c2c[nH]cc2CN(C)CCO)cc1`, for which the “Growth Rate” value with HEK-293T (setting [8]) is 0.59; in the data set with HEK-293T (setting [9]), 0.6; in the data set on HEK-293T (setting [6]), 1; in the data set on Fibroblast (setting [8]) it was 0.53; in the data set on Fibroblast (setting [9]), 0.41; with U2OS (setting [8]), -0.46. In addition, the “Growth Rate” value came out at 0.69 in the data set with U2OS (setting [9]); 0.97 in the data set with U2OS (setting [1]); 0.45 in the data set with U2OS (setting [2]); 0.71 in the data set with U2OS (setting [4]); 0.94 in the data set with U2OS (setting [6]).
For `CC(C)OC(=O)N1CCC(Oc2ncnc3c2cnn3-c2ccc(S(C)(=O)=O)cc2F)CC1`, the “Growth Rate” value in the data set on HEK-293T (setting [1]) was 0.81; in the data set on HEK-293T (setting [2]) it was 0.82; in the data set with HEK-293T (setting [4]), 0.98; in the data set on Fibroblast (setting [8]), 0.77; in the data set on Fibroblast (setting [9]), -0.13; in the data set on Fibroblast (setting [1]), 0.15. The “Growth Rate” value with Fibroblast (setting [2]) was 0.04; in the data set on Fibroblast (setting [3]) it was 0.61; in the data set with Fibroblast (setting [4]), 0.38; in the data set with Fibroblast (setting [5]), 0.58; in the data set on Fibroblast (setting [6]), 0.47; in the data set on Fibroblast (setting [7]), 0.69. For the same molecule, the “Growth Rate” value in the data set on U2OS (setting [9]) is listed as -1; with U2OS (setting [10]), 0.7; in the data set on U2OS (setting [7]) it was 0.97.
On to `O=C(O)c1n[nH]c2c1C[C@H]1C[C@@H]21`, for which the “Growth Rate” value with HEK-293T (setting [8]) was 0.7; in the data set on HEK-293T (setting [9]), 0.85; in the data set on HEK-293T (setting [1]) it was 0.55; in the data set on HEK-293T (setting [10]), 0.86 and 0.89; with HEK-293T (setting [2]) it was 0.71; in the data set with HEK-293T (setting [3]), 0.64. Moreover, the “Growth Rate” value in the data set on HEK-293T (setting [4]) was 0.67; in the data set on HEK-293T (setting [5]), 0.58; in the data set with HEK-293T (setting [6]), 0.7; with HEK-293T (setting [7]), 0.58; with Fibroblast (setting [8]) it was 0.67; in the data set with Fibroblast (setting [9]), 0.18 and 0.32. For the same molecule, the “Growth Rate” value in the data set with Fibroblast (setting [1]) was 0.39 and 0.14; in the data set with Fibroblast (setting [10]), 0.95 and 0.74; in the data set on Fibroblast (setting [2]), 0.55 and 0.57; in the data set on Fibroblast (setting [3]) it was 0.86; with Fibroblast (setting [4]), 0.72 and 0.87; with Fibroblast (setting [5]), 0.89. Also, the “Growth Rate” value was 0.63 and 0.53 with Fibroblast (setting [6]); 0.79 in the data set with Fibroblast (setting [7]); -0.58 in the data set on U2OS (setting [1]); 0.74 with U2OS (setting [10]); 0.86 with U2OS (setting [3]); 0.91 and 0.92 with U2OS (setting [5]). Also, the entries for the “Growth Rate” value with U2OS (setting [6]) and in the data set with U2OS (setting [7]) were 0.99 and 1, respectively.
As for `CN(c1ncccc1CNc1ccnc(-c2cc3cc(Cl)ccc3[nH]2)n1)S(C)(=O)=O`, the “Growth Rate” value in the data set on HEK-293T (setting [1]) is -0.71; in the data set on HEK-293T (setting [10]), -0.53; in the data set on HEK-293T (setting [2]), -0.48; with HEK-293T (setting [3]) it was -0.31; with HEK-293T (setting [4]), -0.36; with HEK-293T (setting [5]), -0.25. The “Growth Rate” value in the data set on HEK-293T (setting [6]) is listed as -0.24; in the data set on HEK-293T (setting [7]), -0.09; in the data set on Fibroblast (setting [1]), -0.63; in the data set on Fibroblast (setting [10]), -0.2; in the data set with Fibroblast (setting [2]) it was -0.43; in the data set on Fibroblast (setting [3]) it was -0.15. For the same molecule, the “Growth Rate” value is recorded as -0.12 in the data set with Fibroblast (setting [4]); -0.08 in the data set on Fibroblast (setting [5]); 0.15 with Fibroblast (setting [6]); 0.04 with Fibroblast (setting [7]); -0.74 with U2OS (setting [8]); 1 in the data set with U2OS (setting [9]). Also, the “Growth Rate” value in the data set on U2OS (setting [1]) was found to be 0.59; in the data set with U2OS (setting [2]), 0.52; in the data set on U2OS (setting [3]), 0.71; with U2OS (setting [4]), 0.58; in the data set on U2OS (setting [5]) it was 0.74; with U2OS (setting [6]) it was 0.61. Besides, in the data set with U2OS (setting [7]), the “Growth Rate” value was 0.7.
`Cc1cc(=O)n(C)c2cc(N3C(=O)CC[C@H](NS(=O)(=O)CC(C)C)[C@H]3c3ccc(Cl)cc3)ccc12`: the “Growth Rate” value with HEK-293T (setting [9]) is 0.38; in the data set with HEK-293T (setting [1]), -0.08; in the data set with HEK-293T (setting [2]) it was 0.15; in the data set on HEK-293T (setting [3]), 0.9; with HEK-293T (setting [4]), 0.21; with HEK-293T (setting [5]), 0.76. Besides, the “Growth Rate” value in the data set with HEK-293T (setting [6]) was 0.18; in the data set with HEK-293T (setting [7]), 0.8; in the data set with Fibroblast (setting [1]) it was -0.91; in the data set on Fibroblast (setting [10]) it was -0.68; with Fibroblast (setting [2]) it was -0.73; in the data set with Fibroblast (setting [3]), -0.53. In addition, the “Growth Rate” value was -0.76 with Fibroblast (setting [4]); -0.4 with Fibroblast (setting [5]); -0.65 with Fibroblast (setting [6]); -0.38 in the data set on Fibroblast (setting [7]); -0.56 in the data set with U2OS (setting [8]); -0.09 in the data set with U2OS (setting [9]). Besides, the “Growth Rate” value was 0.78 in the data set on U2OS (setting [1]); 0.8 in the data set on U2OS (setting [2]); 0.96 in the data set with U2OS (setting [3]); 0.5 in the data set on U2OS (setting [4]); 0.7 in the data set on U2OS (setting [6]).
Turning to `O=C(CCCc1ccccc1)Nc1nc2ccccc2c(=O)s1`, the “Growth Rate” value is 0.98 in the data set on HEK-293T (setting [9]); 0.03 in the data set on HEK-293T (setting [1]); 0.13 in the data set on HEK-293T (setting [2]); 0.34 with HEK-293T (setting [4]); 0.95 in the data set with HEK-293T (setting [5]); 0.34 with HEK-293T (setting [6]). In addition, the “Growth Rate” value is recorded as 0.84 with HEK-293T (setting [7]); 0.6 with Fibroblast (setting [9]); -0.7 in the data set with Fibroblast (setting [1]); -0.65 in the data set on Fibroblast (setting [10]); -0.62 in the data set with Fibroblast (setting [2]); -0.39 in the data set with Fibroblast (setting [3]). Also, the “Growth Rate” value with Fibroblast (setting [4]) is -0.7; in the data set on Fibroblast (setting [5]), -0.32; in the data set with Fibroblast (setting [6]), -0.59; in the data set on Fibroblast (setting [7]) it was -0.34; in the data set with U2OS (setting [8]), -0.37; in the data set with U2OS (setting [10]), 0.67. The “Growth Rate” value turned out to be 0.83 with U2OS (setting [3]), 0.76 with U2OS (setting [5]) and 0.84 in the data set with U2OS (setting [7]).
With `COC[C@@H](c1ccc(C(F)(F)F)cc1)N1CCN(C2(C)CCN(C(=O)c3c(C)ncnc3C)CC2)C[C@@H]1C.O=C(O)/C=C\C(=O)O` [VICRIVIROC MALEATE], the “Growth Rate” value with HEK-293T (setting [8]) was 0.38; in the data set on HEK-293T (setting [9]) it was -1; with HEK-293T (setting [2]), 0.66; in the data set with HEK-293T (setting [4]), 0.49; with HEK-293T (setting [6]), 0.39; in the data set with Fibroblast (setting [1]), -0.4. For the same molecule, the “Growth Rate” value in the data set with Fibroblast (setting [10]) was 0.52; in the data set on Fibroblast (setting [2]), 0.17; in the data set on Fibroblast (setting [3]), 0.68; in the data set with Fibroblast (setting [4]), 0.48; with Fibroblast (setting [5]) it was 0.79; in the data set on Fibroblast (setting [6]) it was 0.67. Further, the “Growth Rate” value was 0.83 with Fibroblast (setting [7]); -0.67 in the data set with U2OS (setting [8]); -0.31 in the data set on U2OS (setting [9]); 0.58 in the data set on U2OS (setting [1]); 0.57 in the data set with U2OS (setting [2]); 0.98 with U2OS (setting [3]). The “Growth Rate” value turned out to be 0.7 in the data set with U2OS (setting [4]), 0.98 in the data set on U2OS (setting [5]), 0.8 with U2OS (setting [6]) and 0.97 in the data set with U2OS (setting [7]).
Consider `Cc1ccc(/C(=C\CN2CCCC2)c2ccccn2)cc1` [TRIPROLIDINE], for which the “Growth Rate” value worked out at 0.8 in the data set with HEK-293T (setting [10]); 0.54 with Fibroblast (setting [8]); 0.74 in the data set with Fibroblast (setting [9]); 0.96 with Fibroblast (setting [1]); 0.98 with Fibroblast (setting [4]); 0.88 in the data set with Fibroblast (setting [6]). Also, the “Growth Rate” value in the data set with U2OS (setting [1]) was -0.54; in the data set on U2OS (setting [10]) it was 0.77; with U2OS (setting [2]), 0.38; in the data set on U2OS (setting [3]) it was 0.88; in the data set with U2OS (setting [4]) it was 0.76; in the data set on U2OS (setting [5]), 0.96. The entries for the “Growth Rate” value in the data set with U2OS (setting [6]) and in the data set on U2OS (setting [7]) were 0.83 and 0.94, respectively.
